Patent US20250114460A1, “NOVEL PLK1 DEGRADATION INDUCING COMPOUND” (UPPTHERA, INC., priority 2021, published 2025)

Molecular target: T1, PLK1 (Homo sapiens, UniProt P53350)
T1 construct: endogenous in cells; host or cells: HeLa LgBit (Plk1-HiBit KI): HeLa stably expressing LgBit, with a CRISPR/Cas9 knock-in of HiBit at the endogenous PLK1 locus
Test: Luciferase assay for PLK1 in HeLa LgBit (Plk1-HiBit KI) cell line
Format: cell-based
Details: 300 nM compound, luminescence after 9 hours
Method: 2. Luciferase Assay for PLK1
(1) Preparation and Culture of HeLa LgBit (Plk1-HiBit KI) Cell Line
A HeLa cell line in which the LgBit vector was transfected and expressed stably was prepared. Then, after constructing gRNA and donor to express the HiBit amino acid sequence behind the C-terminal of the Plk1 gene, which was inherent in the cell, it was inserted into the cell together with a vector capable of expressing CRISPR/Cas9. Only the cells in which the insertion was completed and knock-in had progressed were selected, sub-cultured and used.
(2) Treatment of Compounds of the Present Invention and Method of Luciferase Assay
In the case of HeLa LgBit (Plk1-HiBit KI), the compounds were treated after being released after thymidine block, and the process was as follows. Thymidine (Sigma-Aldrich Cat. No. T9250-5G) was completely dissolved in DW and used in the experiment. For thymidine block, the products were treated with 2 mM of thymidine and then incubated for 24 hours. For release and chemical treatment, the medium was suctioned and washed with 1×PBS. TrypLE™ was added and incubated in 37° C. CO2 incubator for 5 min. Cells neutralized by adding complete media were counted through a counter. For each well of a 96-well culture plate (SPL), 3.3×10^4 cells and a total medium volume of 150 μL were seeded and incubated in a CO2 incubator.
Each cell line was incubated in a CO2 incubator for 18 hours, and Endurazine was added to each well to make up 4% of the total volume. After adding the compound of the present invention in a 96-well white plate (SPL) to a concentration of 300 nM, the wavelength of the plate reader (BMG Labtech, CLARIOstar Plus) was set to […], and then the luminescence was tracked in real time.
In Table 2, Activity represents the ratio of the luminescense value of each Exemplary Compound treatment group to DMSO treatment group (+++: <0.3, ++<0.6, +<0.7).

T1 sequence (P53350 whole entry): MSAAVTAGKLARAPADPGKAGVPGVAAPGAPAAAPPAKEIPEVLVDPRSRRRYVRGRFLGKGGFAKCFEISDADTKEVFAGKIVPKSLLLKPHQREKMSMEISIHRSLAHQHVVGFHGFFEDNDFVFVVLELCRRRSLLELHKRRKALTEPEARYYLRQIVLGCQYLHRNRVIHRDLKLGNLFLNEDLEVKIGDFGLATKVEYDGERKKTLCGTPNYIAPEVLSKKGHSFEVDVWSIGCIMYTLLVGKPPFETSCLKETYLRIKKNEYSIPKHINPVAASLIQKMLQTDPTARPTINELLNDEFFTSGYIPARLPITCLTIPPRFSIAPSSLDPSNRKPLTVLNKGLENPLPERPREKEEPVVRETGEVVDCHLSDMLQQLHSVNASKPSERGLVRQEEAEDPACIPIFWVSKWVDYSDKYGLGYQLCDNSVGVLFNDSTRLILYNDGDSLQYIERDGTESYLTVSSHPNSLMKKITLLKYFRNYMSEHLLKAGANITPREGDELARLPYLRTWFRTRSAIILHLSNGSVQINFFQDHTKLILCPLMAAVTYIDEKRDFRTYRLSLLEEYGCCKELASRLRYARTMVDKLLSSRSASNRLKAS

| Compound | Activity: ratio of the luminescense value of each Exemplary Compound treatment group to DMSO treatment group |
| --- | --- |
| COc1cc(C(=O)NC2CC(N(C)CC3CCN(c4cccc5c4C(=O)N(C4CCC(=O)NC4=O)C5=O)CC3)C2)ccc1Nc1ncc2c(n1)N(C1CCCC1)CC(F)(F)C(=O)N2C (stereo not shown) [Compound 105, 4-((9-cyclopentyl-7,7-difluoro-5-methyl-6-oxo-6,7,8,9-tetrahydro-5H-pyrimido[4,5-b][1,4]diazepin-2-yl)amino)-N-(3-(((1-(2-(2,6-dioxopiperidin-3-yl)-1,3-dioxoisoindolin-4-yl)piperidin-4-yl)methyl)(methyl)amino)cyclobutyl)-3-methoxybenzamide] | ++ (++<0.6) |
| COc1cc(C(=O)NC2CCN(Cc3ccc(COc4ccc5c(c4)CN([C@H]4CCC(=O)NC4=O)C5=O)cc3)CC2)ccc1Nc1ncc2c(n1)N(C1CCCC1)CC(F)(F)C(=O)N2C [Compound 22, (S)-4-((9-cyclopentyl-7,7-difluoro-5-methyl-6-oxo-6,7,8,9-tetrahydro-5H-pyrimido[4,5-b][1,4]diazepin-2-yl)amino)-N-(1-(4-(((2-(2,6-dioxopiperidin-3-yl)-1-oxoisoindolin-5-yl)oxy)methyl)benzyl)piperidin-4-yl)-3-methoxybenzamide] | + (+<0.7) |
| COc1cc(C(=O)NC2CCN(CCOc3ccc4c(c3)C(=O)N(C3CCC(=O)NC3=O)C4=O)CC2)c(F)cc1Nc1ncc2c(n1)N(C1CCCC1)CC(F)(F)C(=O)N2C (stereo not shown) [Compound 3, 4-((9-cyclopentyl-7,7-difluoro-5-methyl-6-oxo-6,7,8,9-tetrahydro-5H-pyrimido[4,5-b][1,4]diazepin-2-yl)amino)-N-(1-(2-((2-(2,6-dioxopiperidin-3-yl)-1,3-dioxoisoindolin-5-yl)oxy)ethyl)piperidin-4-yl)-2-fluoro-5-methoxybenzamide] | ++ (++<0.6) |
| COc1cc(C(=O)NC2CCN(C(=O)[C@@H]3C[C@H](Nc4cccc5c4C(=O)N(C4CCC(=O)NC4=O)C5=O)CN3)CC2)c(F)cc1Nc1ncc2c(n1)N(C1CCCC1)CC(F)(F)C(=O)N2C (stereo partly drawn) [Compound 206, 4-((9-cyclopentyl-7,7-difluoro-5-methyl-6-oxo-6,7,8,9-tetrahydro-5H-pyrimido[4,5-b][1,4]diazepin-2-yl)amino)-N-(1-((2S,4S)-4-((2-(2,6-dioxopiperidin-3-yl)-1,3-dioxoisoindolin-4-yl)amino)pyrrolidine-2-carbonyl)piperidin-4-yl)-2-fluoro-5-methoxybenzamide] | + (+<0.7) |
| C=CC[C@H]1CN(C2CCCC2)c2nc(Nc3ccc(C(=O)NC4CCN(C(=O)CCN5CCN(c6cccc7c6C(=O)N(C6CCC(=O)NC6=O)C7=O)CC5)CC4)cc3OC)ncc2N(C)C1=O (single isomer, unassigned) [Compound 70, 4-((7-allyl-9-cyclopentyl-5-methyl-6-oxo-6,7,8,9-tetrahydro-5H-pyrimido[4,5-b][1, 4]diazepin-2-yl)amino)-N-(1-(3-(4-(2-(2,6-dioxopiperidin-3-yl)-1,3-dioxoisoindolin-4-yl)piperazin-1-yl)propanoyl)piperidin-4-yl)-3-methoxybenzamide] | ++ (++<0.6) |
| COc1cc(N2CCC(CCN3CCN(c4ccc5c(c4)C(=O)N(C4CCC(=O)NC4=O)C5=O)CC3)CC2)c(F)cc1Nc1ncc2c(n1)N(C1CCCC1)CC(F)(F)C(=O)N2C (stereo not shown) [Compound 112, 5-(4-(2-(1-(4-((9-cyclopentyl-7,7-difluoro-5-methyl-6-oxo-6,7,8,9-tetrahydro-5H-pyrimido[4,5-b][1,4]diazepin-2-yl)amino)-2-fluoro-5-methoxyphenyl)piperidin-4-yl)ethyl)piperazin-1-yl)-2-(2,6-dioxopiperidin-3-yl)isoindoline-1,3-dione] | + (+<0.7) |
| COc1cc(C(=O)NCCOCCOCCOCCOCCOCCNc2cccc3c2C(=O)N(C2CCC(=O)NC2=O)C3=O)c(N2CCN(C)CC2)cc1Nc1ncc2c(n1)N(C1CCCC1)CC(F)(F)C(=O)N2C (stereo not shown) [Compound 225, 4-((9-cyclopentyl-7,7-difluoro-5-methyl-6-oxo-6,7,8,9-tetrahydro-5H-pyrimido[4,5-b][1,4]diazepin-2-yl)amino)-N-(17-((2-(2,6-dioxopiperidin-3-yl)-1,3-dioxoisoindolin-4-yl)amino)-3,6,9,12,15-pentaoxaheptadecyl)-5-methoxy-2-(4-methylpiperazin-1-yl)benzamide] | ++ (++<0.6) |
| COc1cc(C(=O)NC2CCN(C(=O)CCCCN3CCN(c4cccc5c4C(=O)N(C4CCC(=O)NC4=O)C5=O)CC3)CC2)ccc1Nc1ncc2c(n1)N(C1CCCC1)CC(F)(F)C(=O)N2C (stereo not shown) [Compound 65, 4-((9-cyclopentyl-7,7-difluoro-5-methyl-6-oxo-6,7,8,9-tetrahydro-5H-pyrimido[4,5-b][1,4]diazepin-2-yl)amino)-N-(1-(5-(4-(2-(2,6-dioxopiperidin-3-yl)-1,3-dioxoisoindolin-4-yl)piperazin-1-yl)pentanoyl)piperidin-4-yl)-3-methoxybenzamide] | ++ (++<0.6) |
| CN1C(=O)C(F)(F)CN(C2CCCC2)c2nc(Nc3ccc(C(=O)NC4CCN(C(=O)CCN5CCN(c6cccc7c6C(=O)N(C6CCC(=O)NC6=O)C7=O)CC5)CC4)cc3OCCO)ncc21 (stereo not shown) [Compound 73, 4-((9-cyclopentyl-7,7-difluoro-5-methyl-6-oxo-6,7,8,9-tetrahydro-5H-pyrimido[4,5-b][1,4]diazepin-2-yl)amino)-N-(1-(3-(4-(2-(2,6-dioxopiperidin-3-yl)-1,3-dioxoisoindolin-4-yl)piperazin-1-yl)propanoyl)piperidin-4-yl)-3-(2-hydroxyethoxy)benzamide] | ++ (++<0.6) |
| COc1cc(C(=O)N2CCC(N3CCN(CCOCCNc4ccc5c(c4)C(=O)N(C4CCC(=O)NC4=O)C5=O)CC3)CC2)c(F)cc1Nc1ncc2c(n1)N(C1CCCC1)CC(F)(F)C(=O)N2C (stereo not shown) [Compound 191, 5-((2-(2-(4-(1-(4-((9-cyclopentyl-7,7-difluoro-5-methyl-6-oxo-6,7,8,9-tetrahydro-5H-pyrimido[4,5-b][1,4]diazepin-2-yl)amino)-2-fluoro-5-methoxybenzoyl)piperidin-4-yl)piperazin-1-yl)ethoxy)ethyl)amino)-2-(2,6-dioxopiperidin-3-yl)isoindoline-1,3-dione] | ++ (++<0.6) |
| COc1cc(C(=O)N2CCC(N3CCN(CCOCCCNc4ccc5c(c4)C(=O)N(C4CCC(=O)NC4=O)C5=O)CC3)CC2)c(F)cc1Nc1ncc2c(n1)N(C1CCCC1)CC(F)(F)C(=O)N2C (stereo not shown) [Compound 192, 5-((3-(2-(4-(1-(4-((9-cyclopentyl-7,7-difluoro-5-methyl-6-oxo-6,7,8,9-tetrahydro-5H-pyrimido[4,5-b][1,4]diazepin-2-yl)amino)-2-fluoro-5-methoxybenzoyl)piperidin-4-yl)piperazin-1-yl)ethoxy)propyl)amino)-2-(2,6-dioxopiperidin-3-yl)isoindoline-1,3-dione] | ++ (++<0.6) |
| COc1cc(C(=O)NC2CCN(C(=O)CCCC#Cc3cccc4c3C(=O)N(C3CCC(=O)NC3=O)C4=O)CC2)ccc1Nc1ncc2c(n1)N(C1CCCC1)CC(F)(F)C(=O)N2C (stereo not shown) [Compound 180, 4-((9-cyclopentyl-7,7-difluoro-5-methyl-6-oxo-6,7,8,9-tetrahydro-5H-pyrimido[4,5-b][1,4]diazepin-2-yl)amino)-N-(1-(6-(2-(2,6-dioxopiperidin-3-yl)-1,3-dioxoisoindolin-4-yl)hex-5-ynoyl)piperidin-4-yl)-3-methoxybenzamide] | ++ (++<0.6) |
| COc1cc(C(=O)NC2CCN(C(=O)CC[C@@H]3CN(Cc4cccc5c4C(=O)N(C4CCC(=O)NC4=O)C5=O)CCO3)CC2)ccc1Nc1ncc2c(n1)N(C1CCCC1)CC(F)(F)C(=O)N2C (stereo partly drawn) [Compound 173, 4-((9-cyclopentyl-7,7-difluoro-5-methyl-6-oxo-6,7,8,9-tetrahydro-5H-pyrimido[4,5-b][1,4]diazepin-2-yl)amino)-N-(1-(3-((2R)-4-((2-(2,6-dioxopiperidin-3-yl)-1,3-dioxoisoindolin-4-yl)methyl)morpholin-2-yl)propanoyl)piperidin-4-yl)-3-methoxybenzamide] | + (+<0.7) |
